According to patent publication US12384749B2, “Onium salt of nitrogen-containing heteroaryl compound and pest control agent” (Nippon Soda Co., Ltd., priority 2019, dated 2025):

Columns and labels:
Type in all cases: in vivo
Mythimna separata = assay: Efficacy test against Mythimna separata (treated artificial feed); conditions: 1 μl of emulsion (I) (5% by mass active ingredient) mixed with 0.8 g artificial feed; second-instar larvae; 25° C.; after five days
Text: (§1) 5 parts by mass of a compound of the present invention, 93.6 parts by mass of dimethylformamide, and 1.4 parts by mass of polyoxyethylene alkyl aryl ether were mixed and dissolved to obtain an emulsion (1) containing 5% by mass of the active ingredient.
(§2) 93.6 parts by mass of dimethylformamide, and 1.4 parts by mass of polyoxyethylene alkyl aryl ether were mixed and dissolved to obtain an emulsion (II).
0.8 g of commercially-available artificial feed (Insect LFS, manufactured by Nosan Corporation) and 1 μl of the emulsion (I) were mixed well, and then 0.2 g of the mixture per treated area was packed into plastic test containers (each having a capacity of 1.4 ml) as test feeds.
Two second-instar larvae of Mythimna separata were left per treated area, and then the test containers were sealed with plastic covers. The test containers were placed in a thermostatic chamber at 25° C., and, after five days had passed therefrom, the mortality and the feed intake were measured. The test was repeated twice.
(§3) In addition, the test was conducted under the same conditions as described above, except that the emulsion (II) was used instead of the emulsion (I), and evaluated as a solvent control area.
The compounds A-2, A-3, A-4, A-9, A-10, A-11, A-15, and A-16 were subjected to an efficacy test against Mythimna separata. […] The mortality was calculated in accordance with the following equation. Mortality (%)=(Died insect number/Tested insect number)×100

Aphis gossypii = assay: Efficacy test against Aphis gossypii (spray on cucumber); conditions: 120 h, 125 ppm by mass sprayed on cucumber, first-instar larvae, 25° C., humidity 60%, after five days
Text: as §1
Cucumber was sown in a 3-sun pot. After ten days had passed from germination, a female adult of Aphis gossypii was left on the cucumber. On the next day, laid first-instar larvae were left, and the female adult was removed. The emulsion (I) was diluted with water such that the amount of the compound of the present invention became 125 ppm by mass. The diluted solution was sprayed on the cucumber. Then, the cucumber was placed in a thermostatic chamber at a temperature of 25° C. and a humidity of 60%. After five days had passed therefrom, life or death of Aphis gossypii was assessed and the mortality was calculated.

Spodoptera litura = assay: Efficacy test against Spodoptera litura (cabbage leaf dip); conditions: foliar, 144 h, 125 ppm by mass, cabbage leaf immersed 30 seconds, second-instar larvae, 25° C., humidity 60%, after six days
Method: as §1
The emulsion (I) was diluted with water such that the amount of the compound of the present invention became 125 ppm by mass. A cabbage leaf was immersed in the diluted solution for 30 seconds. The cabbage leaf was air-dried and then put in a petri dish, followed by leaving five second-instar larvae of Spodoptera litura therein. The petri dish was placed in a thermostatic chamber at a temperature of 25° C. and a humidity of 60%. After six days had passed from leaving the larvae, life or death was assessed and the mortality was calculated. The test was repeated twice.

Helicoverpa armigera = assay: Efficacy test against Helicoverpa armigera (cabbage leaf dip); conditions: foliar, 144 h, 125 ppm by mass, cabbage leaf immersed 30 seconds, second-instar larvae, 25° C., humidity 60%, after six days
Nilaparvata lugens = assay: Efficacy test against Nilaparvata lugens (rice seedling dip); conditions: 240 h, 125 ppm by mass, rice seedling immersed 30 seconds, second-instar larvae, 25° C., humidity 65%, after ten days
Method: as §1
The emulsion (I) was diluted with water such that the amount of the compound of the present invention became 125 ppm by mass. A rice seedling was immersed in the diluted solution for 30 seconds, air-dried, and then placed in a plastic case, followed by leaving five second-instar larvae of Nilaparvata lugens therein. The plastic case was placed in a thermostatic chamber at a temperature of 25° C. and a humidity of 65%. After ten days had passed therefrom, life or death was assessed and the mortality was calculated. The test was repeated twice.

Tetranychus urticae = assay: Efficacy test against Tetranychus urticae (spray on kidney bean); conditions: 125 ppm by mass sprayed on kidney bean; female adults removed after three days; living number counted ten days after spraying; 25° C., humidity 65%
Text: as §1, §2
Five female adults of Tetranychus urticae were left on primary leaves of kidney bean planted in a 3-sun pot. The emulsion (I) was diluted with water such that the amount of the compound of the present invention became 125 ppm by mass. The diluted solution was sprayed on the kidney bean and evaluated as a treated area. The 3-sun pot was placed in a thermostatic chamber at a temperature of 25° C. and a humidity of 65%, and after three days had passed from spraying, the female adults of Tetranychus urticae were removed to leave only laid eggs remaining on the leaves. After ten days had passed from spraying, the number of living Tetranychus urticae was counted. The test was repeated twice.
as §3
The control ratio was calculated in accordance with the following equation. Control ratio (%)=100×[1−Nt/Nc] […]

| Structure (SMILES) | mortality or feed intake relative to the feed intake at the solvent control area (Mythimna separata) | mortality at 125 ppm (Spodoptera litura) [%] | further results |
| --- | --- | --- | --- |
| O=C([N-][n+]1ccsc1)c1ccc(-c2ccc(OC(F)(F)C(F)F)cc2)cc1 [Compound A-10] | 100% mortality of Mythimna separata or 10% or less of the feed intake |  |  |
| O=C([N-][n+]1ccccn1)c1ccc(-c2ccc(OCC(F)(F)F)nc2)nc1 [Compound A-3] | 100% mortality of Mythimna separata or 10% or less of the feed intake |  |  |
| O=C([N-][n+]1ccncc1)c1ccc(C(F)(F)F)cc1 [Compound A-19] |  |  | mortality at 125 ppm (Aphis gossypii): ≥ 80% |
| O=C([N-][n+]1ccncc1)c1ccc(-c2ccc(OC(F)(F)F)cc2)cc1 [Compound A-15] | 100% mortality of Mythimna separata or 10% or less of the feed intake |  |  |
| Cn1cc[n+]([N-]C(=O)c2ccc(-c3ccc(OC(F)(F)C(F)F)cc3)cc2)c1 [Compound A-9] | 100% mortality of Mythimna separata or 10% or less of the feed intake | ≥ 80 | mortality at 125 ppm (Helicoverpa armigera): ≥ 90% |
| O=C([N-][n+]1cnn(CC(F)(F)F)c1)c1ccc(-c2ccc(OC(F)(F)C(F)F)cc2)c(Cl)c1 [Compound A-4] | 100% mortality of Mythimna separata or 10% or less of the feed intake | ≥ 80 |  |
| O=C([N-][n+]1ccccn1)c1ccc(-c2ccc(OC(F)(F)C(F)F)cc2)nc1 [Compound A-2] | 100% mortality of Mythimna separata or 10% or less of the feed intake |  |  |
| O=C([N-][n+]1ccccn1)c1ccc(-c2ccc(OC(F)(F)F)cc2)cc1 [Compound A-16] | 100% mortality of Mythimna separata or 10% or less of the feed intake |  |  |
| O=C([N-][n+]1ccccn1)c1ccc(-c2ccc(OC(F)(F)C(F)F)cc2)cc1 [Compound A-11] | 100% mortality of Mythimna separata or 10% or less of the feed intake | ≥ 80 | mortality at 125 ppm (Nilaparvata lugens): ≥ 80% |
| O=C([N-][n+]1ccccn1)c1ccc(C(F)(F)F)cc1 [Compound A-18] |  |  | control ratio (Tetranychus urticae): ≥ 90% |
| Cn1cc[n+]([N-]C(=O)c2ccc(-c3ccc(OC(F)(F)F)cc3)cc2)c1 [Compound A-13] |  | ≥ 80 |  |
